In patent US20060167098A1, “Method for the treatment of diseases linked to an accumulation of triglycerides and cholesterol” (Institut National De La Sante ET De LA Recherche Medicale …, priority 2003, published 2006):

Key:
[1] = Liver histology, liver triglycerides and ALT in ob/ob mice treated for 4 months, not fasted; assay type: in vivo; settings: for plasma alanine aminotransferase (ALT): after 4 months
Method: Total lipids and triglycerides in the liver of animals were assessed according to a procedure partially reported by (Letteron P., Fromenty B., Terris B., Degott C., Pessayre D., 1996, J. Hepatol. 24 : 200-208). Briefly, after killing of the animals, livers were removed and homogenized in sterile water. Hepatic lipids were thus extracted by a mixture of chloroform and methanol (2/1; v/v). After removal of the aqueous phase, the organic phase (chloroform containing the lipids) was evaporated and the amount of lipids was determined by gravimetry. Lipids were subsequently resuspended in isopropanol (final concentration, ca. 10 mg/mL). After removal of the phopholipids by using aluminum hydroxide hydrate, triglycerides were determined colorimetrically by using periodate and the Nash's reagent (containing acetylacetone, ammonium acetate and isopropanol). The reaction generates diacetyldihydrolutidine which is assayed by spectrophotometry (λ=410 nm).
Plasma HDL-cholesterol and alanine aminotransferase (ALT) were measured on an automatic analyser (Olympus AU400®) with commercial kits (Olympus Diagnostica GmbH, references OSR6187 and OSR6107, respectively).
Finally, liver histology was performed according to regular procedure. Steatosis and fibrosis were assessed thanks to the Oil red O and Masson's trichrome stains, respectively, whereas necrosis and inflammation were determined thanks to the HPS (Hematoxylin-Phloxin-Saffron) stain, or the HE (Hematoxylin-Eosin) stain. In one experiment, perisinusoidal fibrosis was assessed with the Sirius Red stain.
In a second series of investigations, liver histology was studied in ob/ob mice treated for 4 months with β-aminoisobutyric acid, administered either at the usual dose (100 mg/kg/day) or at a higher dose (500 mg/kg/day). In this experiment, liver examination was performed in mice not submitted to a fasting period before sacrifice. The number of investigated animals were 6, 7 and 8, respectively in the control group and in the groups treated with 100 and 500 mg/kg/day of β-aminoisobutyric acid.

[2] = Plasma glucose and insulin in obese ob/ob mice (10 to 12-weeks old), 6 weeks; assay type: in vivo
Method: Plasma glucose was measured on an automatic analyser (Synchron LX20 from Beckman Coulter) with a commercial kit (kit n°472500 from Beckman).
Plasma insulin, adiponectin and leptin were measured by radioimmunoassay (RIA). Insulin was measured with the Insulin-CT kit from Cis Bio International (Gif-sur-Yvette, France), whereas plasma leptin and adiponectin were assessed with kits from Linco Research Inc. (St Charles, Mo.). Leptin was not measured in ob/ob mice since these animals are genetically leptin-deficient (Friedman J. M., Halaas J. L., 1998, Nature 395: 763-770). Results regarding insulin were expressed as recommended by kit manufacturer.
In obese ob/ob mice (10 to 12-weeks old) treated with 100 mg/kg/d of β-aminoisobutyric acid for 6 weeks and fasted for the last 48 hours, there was a trend toward lower plasma levels of glucose and insulin. Indeed, plasma glucose was 11.1±1.4 and 9.0±0.9 mmol/L, respectively in control ob/ob mice (n=6) and mice treated with β-aminoisobutyric acid (n=8). Plasma insulin was 37±19 and 24±6 μU/ml, respectively in control mice (n=4) and mice treated with β-aminoisobutyric acid (n=5). […] Indeed, insulin was 83±13 and 64±7 μU/ml, respectively in control mice (n=5) and mice treated with β-aminoisobutyric acid (n=5).

[3] = 100 mg/kg/d 6 weeks, ob/ob 10 to 12-weeks old, fasted 48 hours
[4] = obese mice, standard diet, 6 weeks

Compound: CC(CN)C(=O)O (racemic) [BAIBA, D,L-β-Aminoisobutyric acid]
- liver triglycerides ([1]; 100 mg/kg/day, 4 months): 721±16 mg/g of lipids
- mice with inflammation ([1]; 100 mg/kg/day, 4 months): 43%
- mice with necrosis ([1]; 100 mg/kg/day, 4 months): 43%
- mice with perisinusoidal fibrosis ([1]; 100 mg/kg/day, 4 months): 29%
- mice with portal or perivenular fibrosis ([1]; 100 mg/kg/day, 4 months): 29%
- plasma alanine aminotransferase (ALT) ([1]; 100 mg/kg/day): 290±61 U/L
- liver triglycerides ([1]; 500 mg/kg/day, 4 months): 707±29 mg/g of lipids
- plasma alanine aminotransferase (ALT) ([1]; 500 mg/kg/day): 258±27 U/L
- extent of steatosis vs control ([1]; 100 and 500 mg/kg/day, 4 months, not fasted): about the same extent
- plasma glucose [2, 3]: 9.0 ± 0.9 mmol/L
- plasma insulin [2, 3]: 24±6 μU/ml
- plasma insulin ([2]; 100 mg/kg/d 6 weeks, ob/ob 10 to 12-weeks old, fed state): 64±7 μU/ml
- decrease of the glucose plasma level [2, 4]: around 20%
- decrease of the insulin plasma level [2, 4]: around 35%
